Data: ChEMBL document CHEMBL6083193, “Advancing drug discovery: Thiadiazole derivatives as multifaceted agents in medicinal chemistry and pharmacology” (Bioorg Med Chem, 2024)
pIC50: −log10 of the molar value. In brackets after ≈: the same amount, converted by molar mass.

Experiments:
Toxoplasma gondii = experiment: Antiparasitic activity against Toxoplasma gondii RH infected in human HFF cells; assay type: functional, organism-based
Alpha glucosidase = Alpha glucosidase (Homo sapiens, UniProt O43451+P10253+P14410+Q2M2H8); experiment: Inhibition of Alpha-glucosidase (unknown origin); assay type: protein assay
[1] = Inhibition of Alpha-amylase (unknown origin); parameters: species or system Homo sapiens
[2] = Antioxidant activity assessed as DPPH radical scavenging activity measured for 30 mins by spectrophotometric analysis; assay type: functional
Mus musculus = experiment: Antiinflammatory activity against carrageenan-induced paw edema in Swiss mouse assessed as reduction in paw edema at 15 mg/kg, po relative to control; assay type: functional; parameters: scale not given: the % may be the effect or the level left
A2780 [3] = experiment: Anticancer activity against human A2780 cells by MTT assay; assay type: functional, cell-based
A549 [4] = experiment: Anticancer activity against human A549 cells by MTT assay; assay type: functional, cell-based
MCF7 [5] = experiment: Anticancer activity against human MCF7 cells by MTT assay; assay type: functional, cell-based
COLO 205 [6] = experiment: Anticancer activity against human COLO 205 cells by MTT assay; assay type: functional, cell-based
A549 [7] = experiment: Cytotoxicity against human A549 cells assessed as reduction in cell growth; assay type: functional, cell-based
A2780 [8] = experiment: Cytotoxicity against human A2780 cells assessed as reduction in cell viability by MTT assay; assay type: functional, cell-based
COLO 205 [9] = experiment: Cytotoxicity against human COLO 205 cells assessed as reduction in cell viability by MTT assay; assay type: functional, cell-based
A549 [10] = experiment: Cytotoxicity against human A549 cells assessed as reduction in cell viability by MTT assay; assay type: functional, cell-based
MCF7 [11] = experiment: Cytotoxicity against human MCF7 cells assessed as reduction in cell viability by MTT assay; assay type: functional, cell-based

Cc1nc[nH]c1-c1nnc(Nc2cccc(Br)c2)s1
IC50 (Toxoplasma gondii): 4.7 µg/mL (≈ 14 µM)

Cc1nc[nH]c1-c1nnc(Nc2ccc(Br)cc2)s1
IC50 (Toxoplasma gondii): 4.7 µg/mL (≈ 14 µM)

S=C(Nc1ccc(Br)cc1)Nc1nsc(Nc2ccc(Cl)cc2)n1
IC50 (Alpha glucosidase): 2.2 µM
pIC50 [1]: 5.89

Cc1nc[nH]c1-c1nnc(Nc2cccc(Cl)c2)s1
IC50 (Toxoplasma gondii): 4.7 µg/mL (≈ 16.1 µM)

N#C/C(=N\Nc1ccccc1)C(=O)Nc1nncs1
IC50 [2]: 37.25 µg/mL (≈ 137 µM)

Cc1nc[nH]c1-c1nnc(Nc2cccc(F)c2)s1
IC50 (Toxoplasma gondii): 4.7 µg/mL (≈ 17.1 µM)

Cc1ccc(/C=C2\S/C(=N/c3nnc(C45CC6CC(CC(C6)C4)C5)s3)NC2=O)cc1
Activity (Mus musculus): 66.7%

O=C1N/C(=N\c2nnc(C34CC5CC(CC(C5)C3)C4)s2)S/C1=C\c1ccccc1[N+](=O)[O-]
Activity (Mus musculus): 66.7%

O=C(Nc1ccc(Br)cc1)c1ccc(-c2nsc(-c3csc(-c4ccncc4)n3)n2)cc1
pIC50 (A2780 [3]): 6.96
pIC50 (A549 [4]): 6.96
pIC50 (MCF7 [5]): 6.96
pIC50 (COLO 205 [6]): 6.96

O=C1N/C(=N\c2nnc(C34CC5CC(CC(C5)C3)C4)s2)S/C1=C\c1c(F)cccc1F
Activity (Mus musculus): 66.7%

CCCCNc1nnc(SCC(=O)N2N=C(c3ccccc3)CC2c2ccc([N+](=O)[O-])cc2)s1 (stereo not drawn)
pIC50 (A549 [7]): 5.00

COc1cc(NC(=O)c2ccc(-c3nsc(-c4csc(-c5ccncc5)n4)n3)cc2)cc(OC)c1OC
pIC50 (A2780 [3]): 6.96
pIC50 (A2780 [8]): 6.85
pIC50 (A549 [4]): 6.96
pIC50 (COLO 205 [9]): 6.92
pIC50 (MCF7 [5]): 6.96
pIC50 (A549 [10]): 6.96
pIC50 (MCF7 [11]): 6.47
pIC50 (COLO 205 [6]): 6.96

O=[N+]([O-])c1cccc(NC(=S)Nc2nsc(Nc3ccc(F)cc3)n2)c1
IC50 (Alpha glucosidase): 2.2 µM
pIC50 [1]: 5.89

O=[N+]([O-])c1cccc(Nc2nc(NC(=S)Nc3ccc(Cl)cc3Cl)ns2)c1
IC50 (Alpha glucosidase): 2.2 µM
pIC50 [1]: 5.89

O=C(Nc1ccc(Cl)cc1)c1ccc(-c2nsc(-c3csc(-c4ccncc4)n3)n2)cc1
pIC50 (A2780 [3]): 6.96
pIC50 (A549 [4]): 6.96
pIC50 (MCF7 [5]): 6.96
pIC50 (COLO 205 [6]): 6.96

O=C(Nc1ccc([N+](=O)[O-])cc1)c1ccc(-c2nsc(-c3csc(-c4ccncc4)n3)n2)cc1
pIC50 (A2780 [3]): 6.96
pIC50 (A549 [4]): 6.96
pIC50 (MCF7 [5]): 6.96
pIC50 (COLO 205 [6]): 6.96

CN(C)c1ccc(/C=C2\S/C(=N/c3nnc(C45CC6CC(CC(C6)C4)C5)s3)NC2=O)cc1
Activity (Mus musculus): 66.7%

O=C1N/C(=N\c2nnc(C34CC5CC(CC(C5)C3)C4)s2)S/C1=C\c1cccc(Cl)c1Cl
Activity (Mus musculus): 66.7%

O=C1N/C(=N\c2nnc(C34CC5CC(CC(C5)C3)C4)s2)S/C1=C\c1c(Cl)cccc1Cl
Activity (Mus musculus): 66.7%

O=C1N/C(=N\c2nnc(C34CC5CC(CC(C5)C3)C4)s2)S/C1=C\c1ccc(F)cc1
Activity (Mus musculus): 66.7%

O=C1N/C(=N\c2nnc(C34CC5CC(CC(C5)C3)C4)s2)S/C1=C\c1ccc(Br)cc1
Activity (Mus musculus): 66.7%

O=[N+]([O-])c1cccc(NC(=S)Nc2nsc(Nc3cccc([N+](=O)[O-])c3)n2)c1
IC50 (Alpha glucosidase): 2.2 µM
pIC50 [1]: 5.89

Cc1[nH]cnc1-c1nnc(Nc2ccc(Cl)cc2)s1
IC50 (Toxoplasma gondii): 4.7 µg/mL (≈ 16.1 µM)

CSc1ccc(C2SCC(=O)N2c2nnc(-c3ccccc3)s2)cc1 (stereo not drawn)
IC50 (Alpha glucosidase): < 500 µM

O=[N+]([O-])c1ccccc1NC(=S)Nc1nsc(Nc2cccc(C(F)(F)F)c2)n1
IC50 (Alpha glucosidase): 2.2 µM
pIC50 [1]: 5.89

Fc1ccccc1NC(=S)Nc1nsc(Nc2ccc(Cl)c(Cl)c2)n1
IC50 (Alpha glucosidase): 2.2 µM
pIC50 [1]: 5.89

COc1ccccc1NC(=S)Nc1nsc(Nc2ccc(Cl)c(Cl)c2)n1
IC50 (Alpha glucosidase): 2.2 µM
pIC50 [1]: 5.89

Cc1nc[nH]c1-c1nnc(Nc2ccccc2Cl)s1
IC50 (Toxoplasma gondii): 4.7 µg/mL (≈ 16.1 µM)

Cc1nc[nH]c1-c1nnc(Nc2ccc(I)cc2)s1
IC50 (Toxoplasma gondii): 4.7 µg/mL (≈ 12.3 µM)

Cc1nc[nH]c1-c1nnc(Nc2ccccc2Br)s1
IC50 (Toxoplasma gondii): 4.7 µg/mL (≈ 14 µM)

CCNc1nnc(SCC(=O)N2N=C(c3ccccc3)CC2c2ccc([N+](=O)[O-])cc2)s1 (stereo not drawn)
pIC50 (A549 [7]): 5.00

Cc1cc(C)cc(NC(=O)c2ccc(-c3nsc(-c4csc(-c5ccncc5)n4)n3)cc2)c1
pIC50 (A2780 [3]): 6.96
pIC50 (A549 [4]): 6.96
pIC50 (MCF7 [5]): 6.96
pIC50 (COLO 205 [6]): 6.96

S=C(Nc1ccc(Cl)c(Cl)c1)Nc1nsc(Nc2ccc(Cl)c(Cl)c2)n1
IC50 (Alpha glucosidase): 2.2 µM
pIC50 [1]: 5.89

FC(F)(F)c1cccc(Nc2nc(NC(=S)Nc3ccccc3)ns2)c1
IC50 (Alpha glucosidase): 2.2 µM
pIC50 [1]: 5.89

COc1ccc(Nc2nnc(SCC(=O)N3N=C(c4ccccc4)CC3c3ccc([N+](=O)[O-])cc3)s2)cc1 (stereo not drawn)
pIC50 (A549 [7]): 5.00

Cc1nc[nH]c1-c1nnc(Nc2ccccc2I)s1
IC50 (Toxoplasma gondii): 4.7 µg/mL (≈ 12.3 µM)

O=C1N/C(=N\c2nnc(C34CC5CC(CC(C5)C3)C4)s2)S/C1=C\c1ccccc1
Activity (Mus musculus): 66.7%

O=C(Nc1cc([N+](=O)[O-])cc([N+](=O)[O-])c1)c1ccc(-c2nsc(-c3csc(-c4ccncc4)n3)n2)cc1
pIC50 (A2780 [3]): 6.96
pIC50 (A549 [4]): 6.96
pIC50 (MCF7 [5]): 6.96
pIC50 (COLO 205 [6]): 6.96

O=C1N/C(=N\c2nnc(C34CC5CC(CC(C5)C3)C4)s2)S/C1=C\c1cccc([N+](=O)[O-])c1
Activity (Mus musculus): 66.7%

CC(C)Nc1nnc(SCC(=O)N2N=C(c3ccccc3)CC2c2ccc([N+](=O)[O-])cc2)s1 (stereo not drawn)
pIC50 (A549 [7]): 5.00

FC(F)(F)c1cccc(Nc2nc(NC(=S)Nc3ccc(Cl)cc3)ns2)c1
IC50 (Alpha glucosidase): 2.2 µM
pIC50 [1]: 5.89

Cc1cccc(CN2C(=O)/C(=N\Nc3nncs3)c3ccccc32)c1
IC50 (Alpha glucosidase): < 500 µM
pIC50 [1]: 5.59

Cc1[nH]cnc1-c1nnc(Nc2ccc(F)cc2)s1
IC50 (Toxoplasma gondii): 4.7 µg/mL (≈ 17.1 µM)

Cc1ccc(/C=C2\S/C(=N\c3nn(-c4ccccc4)nc3C(=O)Nc3nncs3)NC2=O)cc1
IC50 [2]: 22.63 µg/mL (≈ 46.3 µM)

O=C1N/C(=N\c2nnc(C34CC5CC(CC(C5)C3)C4)s2)S/C1=C\c1ccc([N+](=O)[O-])cc1
Activity (Mus musculus): 66.7%

O=C1N/C(=N\c2nnc(C34CC5CC(CC(C5)C3)C4)s2)S/C1=C\c1ccc(O)cc1
Activity (Mus musculus): 66.7%

COc1ccc(/C=C2\S/C(=N\c3nn(-c4ccccc4)nc3C(=O)Nc3nncs3)NC2=O)cc1
IC50 [2]: 22.63 µg/mL (≈ 44.9 µM)

O=C1N/C(=N\c2nnc(C34CC5CC(CC(C5)C3)C4)s2)S/C1=C\c1ccc(Cl)cc1Cl
Activity (Mus musculus): 66.7%

O=[N+]([O-])c1ccccc1NC(=S)Nc1nsc(Nc2ccc(Cl)c(Cl)c2)n1
IC50 (Alpha glucosidase): 2.2 µM
pIC50 [1]: 5.89

CCc1ccc(C2SCC(=O)N2c2nnc(-c3ccccc3)s2)cc1 (stereo not drawn)
IC50 (Alpha glucosidase): < 500 µM
pIC50 [1]: 5.41

COc1cccc(NC(=S)Nc2nsc(Nc3ccc(Cl)c(Cl)c3)n2)c1
IC50 (Alpha glucosidase): 2.2 µM
pIC50 [1]: 5.89

O=C1N/C(=N\c2nnc(C34CC5CC(CC(C5)C3)C4)s2)S/C1=C\c1cccc(F)c1F
Activity (Mus musculus): 66.7%

N#Cc1ccc(NC(=O)c2ccc(-c3nsc(-c4csc(-c5ccncc5)n4)n3)cc2)cc1
pIC50 (A2780 [3]): 6.96
pIC50 (A549 [4]): 6.96
pIC50 (MCF7 [5]): 6.96
pIC50 (COLO 205 [6]): 6.96

COc1cccc(/C=C2\S/C(=N/c3nnc(C45CC6CC(CC(C6)C4)C5)s3)NC2=O)c1
Activity (Mus musculus): 66.7%

O=C1CS/C(=N\c2nn(-c3ccccc3)nc2C(=O)Nc2nncs2)N1
IC50 [2]: 44.35 µg/mL (≈ 115 µM)

Cc1ccc(NC(=S)Nc2nsc(Nc3ccc(Cl)cc3)n2)cc1
IC50 (Alpha glucosidase): 2.2 µM
pIC50 [1]: 5.89

O=[N+]([O-])c1ccc(NC(=S)Nc2nsc(Nc3cccc([N+](=O)[O-])c3)n2)cc1
IC50 (Alpha glucosidase): 2.2 µM
pIC50 [1]: 5.89

Cc1ccc(Nc2nnc(SCC(=O)N3N=C(c4ccccc4)CC3c3ccc([N+](=O)[O-])cc3)s2)cc1 (stereo not drawn)
pIC50 (A549 [7]): 5.00

Cc1nc[nH]c1-c1nnc(Nc2cccc(I)c2)s1
IC50 (Toxoplasma gondii): 4.7 µg/mL (≈ 12.3 µM)

O=C(CCl)Nc1nn(-c2ccccc2)nc1C(=O)Nc1nncs1
IC50 [2]: 22.63 µg/mL (≈ 62.2 µM)

O=[N+]([O-])c1ccc(NC(=S)Nc2nsc(Nc3ccc(Cl)cc3)n2)cc1
IC50 (Alpha glucosidase): 2.2 µM
pIC50 [1]: 5.89

O=C1N/C(=N/c2nn(-c3ccccc3)nc2C(=O)Nc2nncs2)S/C1=C\c1ccc(Cl)cc1
IC50 [2]: 22.63 µg/mL (≈ 44.5 µM)

COc1ccc(/C=C2\S/C(=N/c3nnc(C45CC6CC(CC(C6)C4)C5)s3)NC2=O)cc1
Activity (Mus musculus): 66.7%

CCCNc1nnc(SCC(=O)N2N=C(c3ccccc3)CC2c2ccc([N+](=O)[O-])cc2)s1 (stereo not drawn)
pIC50 (A549 [7]): 5.00

O=C(CSc1nnc(NC2CCCCC2)s1)N1N=C(c2ccccc2)CC1c1ccc([N+](=O)[O-])cc1 (stereo not drawn)
pIC50 (A549 [7]): 5.00

Nc1nn(-c2ccccc2)nc1C(=O)Nc1nncs1
IC50 [2]: 39.27 µg/mL (≈ 137 µM)
